Measurements: EP0974351A2, “Medicament for preventing and treating gastrointestinal damage” (JOUVEINAL, priority 1998, dated 2000)

Key:
Assay type in all cases: in vivo, Male albino mice of the outbred TO strain
[1] = tested on: Anxiety-Related Behavior; assay: Elevated plus maze, anxiety-related behavior 8 hours after ethanol withdrawal in mice
Method: (§1) Male albino mice of the outbred TO strain (Bantin and Kingman, UK) were used in all studies. The weight ranged from 25 to 35 g, with no more than a 5 g range in any single experiment. The mice were housed, eight per cage, at 21°C ± 1°C, with 55 ± 10% relative humidity, and a 12-hour light/dark cycle with the light phase between 09:00 to 21:00. All mice received ad libitum access to tap water and standard laboratory chow (RM-1, Special Diet Services, UK) until their use in experiments or until their diet was replaced with a liquid diet.
(§2) Ethanol was administered in a liquid diet schedule. All mice received control diet for an initial 2-day period. Ethanol treated mice then received a diet containing 3.5% (v/v) ethanol/water for 2 days, followed by a diet containing 7% ethanol for a further 5 days. The average intake was 22 to 30 g/kg/day. Control groups were pair-fed a control diet, balanced isocalorifically to match the ethanol containing diet. There were no differences in the weights of the ethanol-treated and control mice at the end of the treatment periods. When mice were withdrawn from the ethanol (between 07:00 AM and 09:00 AM), they were provided with tap water until their use in experiments.
(§3) Gabapentin was dissolved in saline, the solution being made freshly each testing day. Intraperitoneal (i.p.) injections of either gabapentin, 10 mL/kg, or saline, were given immediately on withdrawal from the ethanol treatment, in the studies on the handling responses and 2 hours prior to measurement of audiogenic seizures. In the experiments using the elevated plus maze, gabapentin or saline was injected i.p. at 8 hours after the removal of the ethanol diet, and the mice placed on the plus maze 60 minutes after the injections. In the studies on motor co-ordination (ataxia) and on locomotor activity, gabapentin or saline was injected to ethanol-naive chow fed mice immediately before testing. Measurements were then made for 60 minutes for the ataxia study, and for 30 minutes in the case of the locomotor activity.
Mice were withdrawn from the ethanol diet at 7:00 AM and tested for anxiety-related behavior 8 hours later using a murine elevated plus-maze. It was constructed of perspex with two opposing open arms (30 × 5 × 0.25 cm) and two opposing closed arms (30 × 5 × 15 cm) which extended from a central platform (5 × 5 cm). The floor was of matt black perspex. The animals were acclimatized to the experimental room 1 hour prior to experimentation. Experiments were conducted under dim red light, and each 5 minute session was video-taped for later analysis, by an observer unaware of the prior treatment. During this analysis (Observer 3.0, Noldus Information Technology, Wageningen, Netherlands) measurements were made of the time spent on each arm of the maze, the number of entries onto each arm and rearing activity. Measures were also made as described in Table 3.
The results of the handling response ratings were compared by nonparametric two-way analysis of variance, designed for repeat measures on the same animal. The results of the area under the curve calculations were compared by the Mann-Whitney U-test. The convulsion incidence was analyzed by Fisher's exact probability test. […] The ataxia measurements were analyzed by the Mann-Whitney U-test and the locomotor activity by Student's t-test.

[2] = tested on: Audiogenic Convulsions; assay: Audiogenic seizures after ethanol withdrawal in mice; settings: for Percentage of Group Showing Clonic Convulsions: Ethanol Diet, 8 hours from ethanol withdrawal, ethanol/saline 80
Method: as §1, §2, §3
At 8 and 12 hours from ethanol withdrawal, the susceptibility to sound-induced convulsions was measured in separate groups of ten mice. Mice were tested individually in a sound-proof perspex box 30 × 30 × 30 cm containing an electric door-bell. The bell was rung for 2 minutes or until the first signs of convulsions. The number of mice which responded by wild-running and clonic convulsions was counted. The mice were humanely killed as soon as a full convulsion was seen.
(§4) The results of the handling response ratings were compared by nonparametric two-way analysis of variance, designed for repeat measures on the same animal. The results of the area under the curve calculations were compared by the Mann-Whitney U-test. The convulsion incidence was analyzed by Fisher's exact probability test. The measurements from the elevated plus maze were subjected to one-way analysis of variance, followed by a Bonuferroni multiple comparison test, comparing all groups to the control group which received saline injections, and also both ethanol treated groups which received gabapentin to the ethanol treated group which received saline. The ataxia measurements were analyzed by the Mann-Whitney U-test and the locomotor activity by Student's t-test.

[3] = tested on: handling responses following withdrawal of chronic ethanol treatment; assay: Handling-induced behavior after ethanol withdrawal in mice
Method: as §1, §2, §3
Following withdrawal from the ethanol treatment at 09:00 AM, ratings of handling-induced behavior were assessed by the same experimenter, on the same mice, every hour for a period of 12 hours after withdrawal from ethanol.
Each mouse was lifted gently by the tail and held for 3 seconds, 30 cm under an "Anglepoise lamp" with a 60-watt bulb. The animal was gently rotated and its ensuing behavior rated on a scale of 1 to 5 according to the criteria in Table 2. Groups of 15 mice were used in each of the treatment groups, and the data were calculated as medians with interquartile ranges. The data were also expressed as the area under the curve at 4 and 12 hours from the withdrawal of the ethanol treatment.
as §4

NCC1(CC(=O)O)CCCCC1 [Gabapentin, 1-(aminomethyl)-cyclohexane acetic acid]
decrease in the percentage time spent on the open arms caused by ethanol withdrawal ([1]; gabapentin 50 mg/kg i.p. 60 min before test, p <0.05 vs saline): decreased this effect
decrease in the percentage time spent on the open arms caused by ethanol withdrawal ([1]; gabapentin 100 mg/kg i.p. 60 min before test, p <0.01 vs saline): decreased this effect
mean time on the open arms in control animals ([1]; gabapentin 100 mg/kg i.p., control diet, mean increased): not significantly different from controls with saline
number of protected head dips in control animals ([1]; gabapentin 100 mg/kg i.p., control diet, p <005 (so in the source)): significantly decreased
increase in protected head dips in mice undergoing ethanol withdrawal ([1]; gabapentin 100 mg/kg i.p., p <0.01 compared with saline): significantly reduced
Percentage of Group Showing Clonic Convulsions ([2]; Gabapentin 5 mg/kg i.p. 2 hours before test): 92%
Percentage of Group Showing Clonic Convulsions ([2]; Gabapentin 20 mg/kg i.p.): 70%
Percentage of Group Showing Clonic Convulsions ([2]; Gabapentin 50 mg/kg i.p.): 40%
Percentage of Group Showing Clonic Convulsions ([2]; Gabapentin 100 mg/kg i.p.): 30 p <0.01 c.f Ethanol/Saline group %
convulsion incidence after the audiogenic stimulus ([2]; any of the doses tested, 12 hours from the end of the ethanol treatment (data not shown)): No effect
area under the handling curve for the first 4 hours ([3]; gabapentin 20 mg/kg i.p., p <0.05): significant effects
area under the handling curve for the first 4 hours ([3]; gabapentin 50 mg/kg i.p., p <0.05): significant effects
duration of marked reduction in handling scores ([3]; gabapentin 100 mg/kg i.p.): around 4 hours
ratings of behavior in response to gentle handling over the 12-hour testing period ([3]; gabapentin 100 mg/kg i.p. on withdrawal from ethanol, p <0.001): significantly reduced
area under the handling curve for the first 4 hours ([3]; gabapentin 100 mg/kg i.p., p <0.01): significant effects
ratings of behavior in response to gentle handling over the 12-hour period of measurement ([3]; lower doses of gabapentin (below 100 mg/kg) i.p. on withdrawal from ethanol): not significant
